According to patent US20090111795A1, “Multimers of Heterocyclic Compounds and Their Use” (priority 2005, published 2009):

melting point: 138 to 143 °C
SMILES: CCOC(=O)C1=C(C)N(c2cccc(C(F)(F)F)c2)C(=O)N(CC(=O)NCC[N+](C)(C)CCNC(=O)CN2C(=O)N(c3cccc(C(F)(F)F)c3)C(C)=C(C(=O)OCC)[C@H]2c2ccc(C#N)cc2)[C@@H]1c1ccc(C#N)cc1.O=C([O-])CCC(=O)O
